Assay results taken from patent US20230085307A1, “PYRIDAZINONE COMPOUND AND HERBICIDE” (NISSAN CHEMICAL CORPORATION, priority 2019, published 2023).

Experiments:
persian speedwell = test: Test Example 5: herbicidal effect by foliage application, plastic box (Table 20, symbol R); format: in vivo, Persian speedwell (Veronica persica); conditions: foliage application, 320 g/ha, three weeks after application
In short: (§1)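 Sow seeds spot-wise in sterilized diluvial soil; cover with ~1.5 cm soil. Grow 14 days in greenhouse, 25° C. to 30° C. Spray foliage with emulsion diluted to predetermined amount. Rate effect after 3 weeks.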

barnyard grass [1] = test: Test Example 3: herbicidal effect by foliage application, Wagner pot (Table 18, symbol H); format: in vivo, barnyard grass (Echinochloa crus-galli); conditions: 320 g/ha
In short: (§2)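 Plants were sown in alluvial soil held under 0.1–0.5 cm standing water and grown 14 days in a greenhouse at 25–30 °C. An emulsifiable formulation, water-diluted to the set dose, was then sprayed onto the foliage, and effects were scored three weeks later using previously defined criteria.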

barnyard grass [2] = test: Test Example 5: herbicidal effect by foliage application, plastic box (Table 20, symbol H); format: in vivo, barnyard grass (Echinochloa crus-galli); conditions: foliage application, 320 g/ha, three weeks after application
In short: as §1

oval-leafed pondweed = test: Test Example 1: herbicidal activity, application before weed generation under submerged conditions (Table 16, symbol C); format: in vivo, oval-leafed pondweed (Monochoria vaginalis); conditions: amount of applied herbicide 320 g/ha
In short: (§3)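 Submerged Wagner pots (alluvial soil, 4 cm water) sown with weed seeds and planted with 2.5-leaf rice seedlings; emulsifiable concentrate diluted in water applied to water surface on sowing day. Held in greenhouse at 25-30 °C; injury scored 0-5 by herbicidal rate after three weeks.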

blackgrass = test: Test Example 5: herbicidal effect by foliage application, plastic box (Table 20, symbol J); format: in vivo, blackgrass (Alopecurus myosuroides); conditions: foliage application, 320 g/ha, three weeks after application
In short: as §1

Chinese sprangletop = test: Test Example 3: herbicidal effect by foliage application, Wagner pot (Table 18, symbol D); format: in vivo, chinese sprangletop (Leptochloa chinensis); conditions: 320 g/ha
In short: as §2

chickweed = test: Test Example 5: herbicidal effect by foliage application, plastic box (Table 20, symbol P); format: in vivo, common chickweed (Stellaria media); conditions: foliage application, 320 g/ha, three weeks after application
In short: as §1

velvetleaf = test: Test Example 5: herbicidal effect by foliage application, plastic box (Table 20, symbol M); format: in vivo, velvetleaf (Abutilon theophrasti); conditions: foliage application, 320 g/ha, three weeks after application
In short: as §1

wild oat = test: Test Example 5: herbicidal effect by foliage application, plastic box (Table 20, symbol I); format: in vivo, wild oat (Avena fatua); conditions: foliage application, 320 g/ha, three weeks after application
In short: as §1

Italian ryegrass = test: Test Example 5: herbicidal effect by foliage application, plastic box (Table 20, symbol K); format: in vivo, Italian ryegrass (Lolium multiflorum); conditions: foliage application, 320 g/ha, three weeks after application
In short: as §1

lambsquarters = test: Test Example 5: herbicidal effect by foliage application, plastic box (Table 20, symbol O); format: in vivo, lambsquarters (Chenopodium album); conditions: foliage application, 320 g/ha, three weeks after application
In short: as §1

late watergrass = test: Test Example 1: herbicidal activity, application before weed generation under submerged conditions (Table 16, symbol A); format: in vivo, late watergrass (Echinochloa oryzicola); conditions: amount of applied herbicide 320 g/ha
In short: as §3

Japanese bulrush = test: Test Example 1: herbicidal activity, application before weed generation under submerged conditions (Table 16, symbol B); format: in vivo, Japanese bulrush (Schoenoplectus juncoides); conditions: amount of applied herbicide 320 g/ha
In short: as §3

wheat = test: Test Example 5: effect on crop by foliage application, plastic box (Table 20, symbol e); format: in vivo; conditions: 320 g/ha, three weeks after application
In short: as §1

rice flat sedge = test: Test Example 3: herbicidal effect by foliage application, Wagner pot (Table 18, symbol E); format: in vivo, rice flat sedge (Cyperus iria); conditions: 320 g/ha
In short: as §2

redroot pigweed = test: Test Example 5: herbicidal effect by foliage application, plastic box (Table 20, symbol N); format: in vivo, redroot pigweed (Amaranthus retroflexus); conditions: foliage application, 320 g/ha, three weeks after application
In short: as §1

directly sowed rice = test: Test Example 3: effect on crop by foliage application, Wagner pot (Table 18, symbol b); format: in vivo; conditions: 320 g/ha
In short: as §2

southern crabgrass = test: Test Example 5: herbicidal effect by foliage application, plastic box (Table 20, symbol F); format: in vivo, southern crabgrass (Digitaria ciliaris); conditions: foliage application, 320 g/ha, three weeks after application
In short: as §1

beet = test: Test Example 5: effect on crop by foliage application, plastic box (Table 20, symbol f); format: in vivo; conditions: 320 g/ha, three weeks after application
In short: as §1

soybean = test: Test Example 5: effect on crop by foliage application, plastic box (Table 20, symbol d); format: in vivo; conditions: 320 g/ha, three weeks after application
In short: as §1

corn = test: Test Example 5: effect on crop by foliage application, plastic box (Table 20, symbol c); format: in vivo; conditions: 320 g/ha, three weeks after application
In short: as §1

rapeseed = test: Test Example 5: effect on crop by foliage application, plastic box (Table 20, symbol g); format: in vivo; conditions: 320 g/ha, three weeks after application
In short: as §1

green foxtail = test: Test Example 5: herbicidal effect by foliage application, plastic box (Table 20, symbol G); format: in vivo, green foxtail (Setaria viridis); conditions: foliage application, 320 g/ha, three weeks after application
In short: as §1

transplanted rice = test: Test Example 1: effect on crop, application before weed generation under submerged conditions (Table 16, symbol a); format: in vivo; conditions: amount of applied herbicide 320 g/ha
Source text: [Test Example 1] Herbicidal Activity Test by Application before Weed Generation under Submerged Conditions After alluvial soil was placed into 1/10000 are of Wagner pot, water was poured and mixed to form a submerged condition having a water depth of 4 cm. Seeds of late watergrass, Japanese bulrush, and oval-leafed pondweed were sowed in a mixed manner in the aforementioned pot, and then 2.5 leaf stage rice plant seedlings were transplanted thereto. On the day of sowing seeds, the emulsion agent of the compound of the present invention prepared according to Formulation Example 2 was diluted with water so as to achieve a predetermined herbicide amount, and the diluted emulsion agent was applied to the surface of the water. The pot was placed in a greenhouse at 25° C. to 30° C. for growth of the plants. Three weeks after the herbicide application, the effect of the herbicide on each plant was evaluated according to the following criteria. Evaluation Criteria 5: Herbicidal rate of 90% or more (almost completely withered) 4: Herbicidal rate of 70% or more and less than 90% 3: Herbicidal rate of 40% or more and less than 70% 2: Herbicidal rate of 20% or more and less than 40% 1: Herbicidal rate of 5% or more and less than 20% 0: Herbicidal rate of 5% or less (almost no effect)

windgrass = test: Test Example 5: herbicidal effect by foliage application, plastic box (Table 20, symbol L); format: in vivo, windgrass (Apera spica-venti); conditions: foliage application, 320 g/ha, three weeks after application
In short: as §1

## COc1ccc2c(-c3c(O)c(N(Cc4ccccc4)Cc4ccccc4)nn(C)c3=O)c(-c3ccccc3OC)sc2c1 [Compound No. 3-086, 6-(dibenzylamino)-5-hydroxy-4-(6-methoxy-2-(2-methoxyphenyl)benzo[b]thiophen-3-yl)-2-methylpyridazin-3(2H)-one]
Persian speedwell
  R: persian speedwell, herbicidal effect grade: 0 (Herbicidal rate of 5% or less (almost no effect))
Barnyard grass [1]
  herbicidal effect on barnyard grass (H): 3 (Herbicidal rate of 40% or more and less than 70%)
Barnyard grass [2]
  H: barnyard grass, herbicidal effect grade: 0 (Herbicidal rate of 5% or less (almost no effect))
oval-leafed pondweed
  Herbicidal effect, C: oval-leafed pondweed: 0 (Herbicidal rate of 5% or less (almost no effect))
blackgrass
  J: blackgrass, herbicidal effect grade: 3 (Herbicidal rate of 40% or more and less than 70%)
Chinese sprangletop
  herbicidal effect on Chinese sprangletop (D): 0 (Herbicidal rate of 5% or less (almost no effect))
chickweed
  P: chickweed, herbicidal effect grade: 0 (Herbicidal rate of 5% or less (almost no effect))
velvetleaf
  M: velvetleaf, herbicidal effect grade: 0 (Herbicidal rate of 5% or less (almost no effect))
Wild oat
  I: wild oat, herbicidal effect grade: 0 (Herbicidal rate of 5% or less (almost no effect))
Italian ryegrass
  K: Italian ryegrass, herbicidal effect grade: 0 (Herbicidal rate of 5% or less (almost no effect))
lambsquarters
  O: lambsquarters, herbicidal effect grade: 1 (Herbicidal rate of 5% or more and less than 20%)
Late watergrass
  Herbicidal effect, A: late watergrass: 0 (Herbicidal rate of 5% or less (almost no effect))
other
  melting point: 163 to 166 °C
Japanese bulrush
  Herbicidal effect, B: Japanese bulrush: 2 (Herbicidal rate of 20% or more and less than 40%)
wheat
  e: wheat, effect on crop grade: 0 (Herbicidal rate of 5% or less (almost no effect))
Rice flat sedge
  herbicidal effect on rice flat sedge (E): 0 (Herbicidal rate of 5% or less (almost no effect))
Redroot pigweed
  N: redroot pigweed, herbicidal effect grade: 5 (Herbicidal rate of 90% or more (almost completely withered))
Directly sowed rice
  effect on directly sowed rice (b): 0 (Herbicidal rate of 5% or less (almost no effect))
Southern crabgrass
  F: southern crabgrass, herbicidal effect grade: 0 (Herbicidal rate of 5% or less (almost no effect))
beet
  f: beet, effect on crop grade: 0 (Herbicidal rate of 5% or less (almost no effect))
soybean
  d: soybean, effect on crop grade: 3 (Herbicidal rate of 40% or more and less than 70%)
corn
  c: corn, effect on crop grade: 0 (Herbicidal rate of 5% or less (almost no effect))
rapeseed
  g: rapeseed, effect on crop grade: 5 (Herbicidal rate of 90% or more (almost completely withered))
Green foxtail
  G: green foxtail, herbicidal effect grade: 0 (Herbicidal rate of 5% or less (almost no effect))
Transplanted rice
  Effect on crop, a: transplanted rice: 0 (Herbicidal rate of 5% or less (almost no effect))
windgrass
  L: windgrass, herbicidal effect grade: 0 (Herbicidal rate of 5% or less (almost no effect))
